This note sets out measurements from PubChem BioAssay AID1850 (Southern Research Specialized Biocontainment Screening …, 2009).

The assay relates to Salmonella Typhi PhoP-promoter GFP reporter, fluorescence, 4 h. Description: PhoP regulon inhibitors, Salmonella typhi PhoP promoter GFP reporter, confirmatory (AID 1850).

Structures are written as SMILES.

Turning to `CN1CCN(C2Cc3ccc(Cl)cc3Sc3ccc(F)cc32)CC1` (stereo unspecified), the IC50 was 37.8 µM.
With `O=C(CSc1nc2ccccc2[nH]1)Nc1ccc(F)c(F)c1` the figure was 62.5 µM; with `COc1ccc2[nH]c3c(C)c4ccncc4c(C)c3c2c1`, 20.5 µM; with `O=Nc1c(O)c2ccccc2c2ccccc12`, 19.7 µM.
Regarding `O=C(N/N=C/c1c(O)ccc2ccccc12)c1ccc(CO)nc1`, the IC50 was 87.3 µM.
Take `C(=N\Nc1ccccn1)/c1cccnc1`: the IC50 is 33.9 µM.
For the compound `CCN(CC)c1ccc(CNc2nc3ccccc3n2CCN2CCCCC2)cc1`, the IC50 is 52.1 µM.
Regarding `C/C(=N\Nc1ccc2nncn2n1)c1ccccn1`, the IC50 is 65.7 µM.
Take `Oc1[nH]c2ccccc2c1N=NC(=S)N1CCOCC1`: the IC50 is 35.7 µM.
With `Cc1cc(=O)[nH]c(-n2nc(C)cc2C)n1` the figure was 75.5 µM; with `CN(C)CCNC(=O)c1ccc(COc2ccc(Cl)cc2Cl)cc1`, 125 µM.
With `COc1ccc(OCc2n(CC(=O)OC3CC(C)CCC3C(C)C)c3ccccc3[n+]2C)cc1` (stereo unspecified) the figure was 48.9 µM; with `NC(N)=N/N=C/c1ccc(OCc2ccc(Cl)cc2Cl)cc1`, 18.4 µM; with `Cc1cc([N+](=O)[O-])cc(/C=N/n2c(C)nc3ccccc3c2=O)c1O`, 77.2 µM.
With `Nc1ncncc1-c1ccc([N+](=O)[O-])cc1`, the concentration for half-maximal inhibition (IC50) was 80.1 µM.
As to `O=c1c2ccccc2[nH]c2ccc(F)cc12`, the IC50 was 75.7 µM.
With `NC1=NC[C@H](Cc2ccccc2)N1CCCCC1CCCCC1` the figure was 22 µM; with `CC(C)(C)c1ccc(OCCCNC2CCCC2)cc1`, 83.2 µM; with `COc1ccc(/C=C/c2cc[n+](C(=O)Cc3ccccc3)cc2)cc1`, 118 µM.
As for `Cc1cccc(OCC(O)Cn2c(=N)n(CCN3CCCCC3)c3ccccc32)c1` (stereo unspecified), the IC50 was 78.3 µM.
With `COc1cccc(Nc2nc(NCC3CCCO3)c3ccccc3n2)c1` (stereo unspecified) the figure was 10.2 µM.
As for `CCN1CCN(C(=O)c2cc3cc(Cl)ccc3[nH]2)CC1`, the half-inhibitory concentration (IC50) was 89.5 µM.
With `CC1CCc2cc(F)cc3c(=O)c(C(=O)O)cn1c23` (stereo unspecified) the figure was 6.15 µM.
With `Oc1c(CN2CCOCC2)cc(COCc2ccccc2)c2cccnc12` the figure was 38.5 µM; with `Cc1cc(NS(=O)(=O)c2ccc(NC(=O)Nc3cccc(Cl)c3)cc2)no1`, 148 µM.
On to `O=C(NCCCN1CCN(c2ccc(F)cc2)CC1)Nc1ccc([N+](=O)[O-])cc1`, for which the IC50 was 76.1 µM.
For `CN1CCC(OC(=O)c2ccc(Cl)cc2Cl)CC1`, the IC50 was 146 µM.
As to `O=C(CCc1ccccc1)NNC(=O)c1ccccn1`, the IC50 was 74 µM.
With `C#CCOCCOCCOCCNc1nc(N2CCN(C(=O)[C@H](Cc3ccc(O)cc3)n3cc([C@@H](N)CC(C)C)nn3)CC2)nc(N2CCN(C(=O)[C@H](Cc3cc4ccccc4[nH]3)n3cc([C@@H](N)CC(C)C)nn3)CC2)n1` the figure was 105 µM; with `Cc1ccc(NNS(=O)(=O)c2ccc(C)cc2)cc1`, 53.7 µM; with `Cc1ccc(C[n+]2c(-c3ccc(C)cc3)cc(-c3ccc(C)cc3)cc2-c2ccc(C)cc2)cc1`, 20.1 µM.
Take `Cn1ncnc2c(=O)n(C)c(=O)nc1-2`: the IC50 is 1.29 µM.
`O=Nc1ccc(O)c2ncccc12`: the IC50 is 17.8 µM.
With `O/N=C/C1=C(Cl)c2ccccc2CC1` the figure was 125 µM; with `O=C(N/N=C\c1ccc(Cl)s1)c1cccs1`, 78.5 µM; with `CO[C@@]1(NC(=O)Cc2cccs2)C(=O)N2C(C(=O)O)=C(COC(N)=O)CS[C@@H]21`, 9.3 µM.
For the compound `O=c1cc(-c2ccc(O)cc2)oc2c(O)c(O)c(O)c(O)c12`, the IC50 was 35.6 µM.
With `O=C(Nc1cccc(C2=NCCN2)c1)Nc1cccc(C2=NCCN2)c1` the figure was 71.9 µM.
As to `Oc1cccc(C=NCc2ccccc2)c1O`, the IC50 is 51.3 µM.
As to `CC1CCC(C(C)C)C(OC(=O)Cn2c(-c3ccc(Br)cc3)[n+](C)c3ccccc32)C1` (stereo unspecified), the IC50 was 48.7 µM.
With `O=C(O)/C(=C\C(=O)c1ccccc1)Nc1ccccc1` the figure was 39.4 µM; with `CN(Cc1ccccc1)CC(O)COc1ccc(CNCc2ccc(Cl)s2)cc1` (stereo unspecified), 124 µM.
With `CCCCCOc1ccc(CSC2=NCCN2)cc1[N+](=O)[O-]` the figure was 36.8 µM; with `OCCCNc1c2ccccc2nc2ccccc12`, 105 µM; with `O=C(NC(CO)Cc1ccc([N+](=O)[O-])cc1)C(Cl)Cl` (stereo unspecified), 5.73 µM.
With `CCN(CC(=O)NC(C)(C)C)C(=O)COc1c(Cl)cc(Cl)c2ccc(C)nc12` the figure was 41.4 µM; with `CC1(C)N=C(N)NC(Nc2ccc(Br)cc2)=N1`, 38.8 µM; with `Cc1cccc(Nc2c3c(nc4ccccc24)CCC3)c1`, 34.7 µM.
For `O=C(CCN1CCN(c2ccccc2)CC1)c1ccc(Cl)cc1`, the IC50 was 64.9 µM.
Take `Cc1ccc(NC(=O)CNCc2ccccc2)cc1Br`: the IC50 was 52.9 µM.
With `O=C(Cn1nc(CNc2ccc(Br)cc2)[n+]2c1CCCCC2)c1ccc([N+](=O)[O-])cc1`, the IC50 was 40.1 µM.
With `O=C1CN(/N=C/c2ccc([N+](=O)[O-])o2)C(=O)N1` the figure was 41.1 µM; with `O=C(Nc1nnc(-c2cccs2)o1)c1cccc(C(F)(F)F)c1`, 22.9 µM; with `Cc1ccc2c(c1)C1CN(C)CCC1N2Sc1ccccc1[N+](=O)[O-]` (stereo unspecified), 43.7 µM.
With `Fc1ccc(Nc2nnc(C(F)(F)F)s2)cc1Cl` the figure was 36.8 µM.
With `CC1CCC(C(C)C)C(OC(=O)Cn2c(COc3ccccc3)[n+](C)c3ccccc32)C1` (stereo unspecified) the figure was 35.1 µM; with `CC(C)N1CSC(=S)N(Cc2ccccc2)C1`, 108 µM; with `CCCCCOc1ccc(CSC(=N)N)cc1[N+](=O)[O-]`, 57.7 µM.
Take `CCCCCc1ccc(OCCCC[n+]2cccc(C)c2)c(CCCCC)c1`: the IC50 is 59.1 µM.
With `O=C(CSc1nc2ccccc2s1)N/N=C/c1cc([N+](=O)[O-])ccc1O` the figure was 72.5 µM; with `CCn1cc(C(=O)O)c(=O)c2cc3c(cc21)OCO3`, 43.3 µM; with `CCn1nnc(NC(=O)c2ccc([N+](=O)[O-])o2)n1`, 52.3 µM.
For the compound `CCn1cc(C(=O)O)c(=O)c2cc(F)c(N3CCN(C(=S)NC(=O)c4ccc(Br)cc4)CC3)cc21`, the IC50 is 12.7 µM.
With `CCCCCCCCCCOC(=O)Cn1c(COc2ccccc2OC)[n+](C)c2ccccc21` the figure was 10.2 µM.
With `CCCNC(=O)c1cn(CC)c2cc(N3CCN(C)CC3)c(F)cc2c1=O` the figure was 13.4 µM; with `O=C(Oc1ccccc1)c1cc2ccccc2o1`, 38.1 µM.
Take `COc1ccc(NC(=O)c2cc(Br)c(Br)s2)cn1`: the IC50 is 10.3 µM.
With `C=CC1=C(C(=O)O)N2C(=O)[C@@H](NC(=O)/C(=N\O)c3csc(N)n3)[C@H]2SC1` (stereo in doubt) the figure was 19.1 µM.
With `CC[C@@H](C)[C@H](CNC)NC[C@@H](Cc1cccc2ccccc12)NCCc1cccc(C(F)(F)F)c1` the figure was 19.9 µM; with `O=C(Oc1c(Cl)cc(Cl)c2cccnc12)c1ccco1`, 14.6 µM; with `c1ccc(CN2CCC(Nc3nc(-c4cccs4)nc4ccccc34)CC2)cc1`, 21.5 µM.
Regarding `Cc1cc(C)c(NC(=O)C[N+](C)(C)CC(O)COc2cccc3ccccc23)c(C)c1` (stereo unspecified), the IC50 was 46.3 µM.
As for `COc1ccc(/C=N/Nc2cc(C)nc3c(C)cccc23)cc1`, the IC50 is 19.3 µM.
With `c1cc2c(cc1C1CCCCC1)c1c3n2CCN=C3CCC1` the figure was 51.1 µM; with `CCOC(=O)N1CCN(C(=O)c2cn(CC)c3cc(N4CCN(C)CC4)c(F)cc3c2=O)CC1`, 3.42 µM; with `CCc1cccc2c1Sc1ccccc1CC2N1CCNCC1` (stereo unspecified), 50.8 µM.
Consider `O=C(Cn1cncn1)N/N=C/c1ccccc1O`, for which the IC50 is 139 µM.
As for `OC(CNCCc1ccc(Cl)cc1Cl)COc1ccccc1` (stereo unspecified), the IC50 was 71 µM.
In the case of `Nc1[nH]ncc1-c1ccccc1`, the half-inhibitory concentration (IC50) was 69.6 µM.
With `Cc1[nH]c2ccc(OC(F)(F)F)cc2c1CCNCc1ccc(Cl)cc1`, the half-inhibitory concentration (IC50) is 22.1 µM.
With `Oc1ccccc1C(Nc1nccs1)c1ccc2cccnc2c1O` (stereo unspecified) the figure was 20.7 µM; with `O=[N+]([O-])c1cc(/C=N/Nc2nc3ccccc3[nH]2)c(O)cc1O`, 19.3 µM; with `O=C(CNC(=O)c1ccccc1)N/N=C/c1ccc([N+](=O)[O-])s1`, 19.7 µM.
Regarding `NC(=O)c1ccc(N=C2C(=O)Nc3ccc([N+](=O)[O-])cc32)cc1`, the concentration for half-maximal inhibition (IC50) is 34.6 µM.
With `CNC[C@@H](CC1CCCCC1)NC[C@H](CC(C)C)NCCc1cccc(C(F)(F)F)c1` the figure was 19.8 µM; with `O=[N+]([O-])c1ccc(O)c2ncccc12`, 0.96 µM.
With `CN(C)CC/C=C1/c2cc(F)ccc2Sc2ccc(Cl)cc21` the figure was 65.9 µM; with `C#CCOCCOCCOCCNc1nc(N2CCN(C(=O)CCCCCCCCCCNC(=O)[C@@H](CCSC)n3cc(CCO)nn3)CC2)nc(N2CCN(C(=O)CCCCCCCCCCNC(=O)[C@H]([C@@H](C)CC)n3cc(CCCCCN)nn3)CC2)n1`, 119 µM.
With `COc1ccc(Nc2c3c(nc4ccccc24)CCC3)cc1` the figure was 74.6 µM; with `O=C(NC(CO)C(O)c1ccc([N+](=O)[O-])cc1)C(Cl)Cl` (stereo unspecified), 5.12 µM; with `CCCCCNc1nc(N2CCCC2)c2c(c1C#N)CCN(C)C2`, 53.6 µM.
As for `Nc1nc(Nc2cccc(F)c2)nc2ccccc12`, the IC50 is 22.9 µM.
Take `CN(C)C1C(=O)C(C(N)=O)=C(O)C2(O)C(=O)C3=C(O)c4c(O)cccc4C(C)(O)C3CC12` (stereo unspecified): the IC50 is 3.07 µM.
With `O=C(Cc1ccccc1)N/N=C/c1cc(Br)cc(Cl)c1O` the figure was 32.7 µM; with `O=c1c2c([nH]c3ccccc13)CCCCC2`, 43.6 µM; with `Cc1cc(OCC(O)CNC(C)c2ccccc2)ccc1C(C)C` (stereo unspecified), 38.1 µM.
With `O=C(O)c1ccc(N2C(=O)CC(N3C(=O)/C(=C/c4ccc(Cl)cc4)SC3=S)C2=O)cc1` (stereo unspecified) the figure was 34.3 µM; with `CN(C)CCCNC(=O)c1ccc(-c2nc(-c3ccc(Cl)cc3)cs2)cc1`, 20.8 µM; with `CCCOc1ccc(C(=O)NNC(=S)NC(=O)c2ccco2)cc1`, 74.7 µM.
Consider `CCCNC1=C(C)C(=O)C2=C(C1=O)C(COC(N)=O)[C@]1(OC)C3NC3CN21` (stereo partly specified), for which the IC50 was 15.9 µM.
With `CC(C)CCC(CCNCc1ccccn1)c1ccc(Cl)cc1` (stereo unspecified) the figure was 65.4 µM.

One may read the IC50 as the concentration needed to halve the response being measured.
